Data reported in article PMC11730522 (BMC Pharmacology & Toxicology, 2025).

Assay: Pharmacokinetic study, plasma EZ levels by HPLC
Format: in vivo, rats

O=C1[C@H](CC[C@H](O)c2ccc(F)cc2)[C@@H](c2ccc(O)cc2)N1c1ccc(F)cc1 [EZ, Ezetimibe]
drop of plasma level of EZ from the highest level (after 4 h): 50% | Tmax (rat, plasma, po, 10 mg/kg): 2 h | peak plasma concentration of EZ (rats, oral): 24.36 ± 1.36 µg/mL
